Experimental data: paper PMC2074394 (British Journal of Cancer, 1996)
“Also recorded” adds a separate entry of the source. Like-named read-outs stand apart in the source and are kept apart here.

Columns and labels:
[1] = tested on: MCF-7/Adr cells; assay: Sensitisation of MCF-7/Adr cells against doxorubicin (preliminary study); type: cell-based, human; details: unpublished preliminary study
[2] = tested on: MCF-7/Adr cells; assay: [3H]Vinblastine accumulation in MCF-7/Adr cells; type: cell-based, human; details: 300 nM, 1 h, 37 C; control cells 1280 d.p.m.
Text: (§1) In the present study these five compounds are compared as modifiers of P-gp-mediated MDR. […] The overall objective of the work was to explore the mechanisms of cytostasis and resistance reversal caused by kinase inhibitors in a MDR cell line, with the ultimate aim to assess the potential use of such compounds in cancer therapy. […] [3H]Vinblastine (11 or 21 Ci mmol -') was obtained from Amersham (Amersham, UK). […] Cell culture medium and serum were purchased from Gibco BRL (Paisley, UK). Stock solutions of drugs were prepared in dimethyl sulphoxide (DMSO) and stored at -20?C. […] Cultures of both cell types contained L-glutamine (2 mM), penicillin (100 IU ml-') and streptomy- cin (100 ug ml-1). Cells were subcultured when they were confluent. […] After a 4 h attachment period compounds at various concentrations were added. […] Cells were trypsinised and counted using a model ZM Coulter counter. Incubations were conducted in duplicate. Growth inhibition was expressed as percentage of cell number in drug-free control incubates. […] IC50 values were derived from three separate experiments each performed in duplicate. The resistance ratios shown in Table I are the ratios of IC50 in MCF-7/Adr over IC50 in MCF-7, or IC50 in MCF-7/Adr in the absence of reserpine over IC50 in its presence. Flow cytometric analysis of R123 accumulation and efflux Cells were maintained in medium without phenol red but with FCS (10%) and gentamicin (50 µg ml-'). […] Cells were detached by treatment with trypsin-EDTA, washed with ice-cold PBS and resuspended in PBS (1 ml), to which propidium iodide (10 Mg) was added. […] Single- and multi-parameter data of forward angle scatter, side scatter, R123 fluorescence and propidium iodide fluorescence were collected for 104 cells. Fluorescence was measured on a four-decade log scale. The data were analysed using Lysis 2 software. Only R123 fluorescence of viable, propidium iodide-excluding cells was analysed. [/II] Vinblastine accumndation ini cells MCF-7 and MCF-7jAdr cells were grown to confluency in 12-well plates. […] The experiment was started by addition of [3H]vinblastine (1 -2 nM) to the incubate. […] Cells were incubated at 37'C for I h, after which the medium was aspirated and replaced with scintillant (1 ml). […] For each membrane preparation 109 cells were homogenised in 40 ml ice-cold Tris buffer [Tris-HC1 50 mM, phenylmethylsulphonyl fluoride (PMSF) 0.1 mM, pH 7.4] to which 0.1 mM EDTA had been added. The homogenate was centrifuged at 3500 g for 10 min; the supernatant was recentrifuged at 40 000 g for 20 min, the resultant pellet was resuspended in Tris buffer (10 ml). […] Filters were dried and retained radioactivity was quantitated by liquid scintillation counting.

[3] = biological target: P-gp (Homo sapiens, UniProt P08183); assay: Inhibition of binding of [3H]vinblastine to P-gp in MCF-7/Adr membranes
P-gp, sequence (P08183 whole entry): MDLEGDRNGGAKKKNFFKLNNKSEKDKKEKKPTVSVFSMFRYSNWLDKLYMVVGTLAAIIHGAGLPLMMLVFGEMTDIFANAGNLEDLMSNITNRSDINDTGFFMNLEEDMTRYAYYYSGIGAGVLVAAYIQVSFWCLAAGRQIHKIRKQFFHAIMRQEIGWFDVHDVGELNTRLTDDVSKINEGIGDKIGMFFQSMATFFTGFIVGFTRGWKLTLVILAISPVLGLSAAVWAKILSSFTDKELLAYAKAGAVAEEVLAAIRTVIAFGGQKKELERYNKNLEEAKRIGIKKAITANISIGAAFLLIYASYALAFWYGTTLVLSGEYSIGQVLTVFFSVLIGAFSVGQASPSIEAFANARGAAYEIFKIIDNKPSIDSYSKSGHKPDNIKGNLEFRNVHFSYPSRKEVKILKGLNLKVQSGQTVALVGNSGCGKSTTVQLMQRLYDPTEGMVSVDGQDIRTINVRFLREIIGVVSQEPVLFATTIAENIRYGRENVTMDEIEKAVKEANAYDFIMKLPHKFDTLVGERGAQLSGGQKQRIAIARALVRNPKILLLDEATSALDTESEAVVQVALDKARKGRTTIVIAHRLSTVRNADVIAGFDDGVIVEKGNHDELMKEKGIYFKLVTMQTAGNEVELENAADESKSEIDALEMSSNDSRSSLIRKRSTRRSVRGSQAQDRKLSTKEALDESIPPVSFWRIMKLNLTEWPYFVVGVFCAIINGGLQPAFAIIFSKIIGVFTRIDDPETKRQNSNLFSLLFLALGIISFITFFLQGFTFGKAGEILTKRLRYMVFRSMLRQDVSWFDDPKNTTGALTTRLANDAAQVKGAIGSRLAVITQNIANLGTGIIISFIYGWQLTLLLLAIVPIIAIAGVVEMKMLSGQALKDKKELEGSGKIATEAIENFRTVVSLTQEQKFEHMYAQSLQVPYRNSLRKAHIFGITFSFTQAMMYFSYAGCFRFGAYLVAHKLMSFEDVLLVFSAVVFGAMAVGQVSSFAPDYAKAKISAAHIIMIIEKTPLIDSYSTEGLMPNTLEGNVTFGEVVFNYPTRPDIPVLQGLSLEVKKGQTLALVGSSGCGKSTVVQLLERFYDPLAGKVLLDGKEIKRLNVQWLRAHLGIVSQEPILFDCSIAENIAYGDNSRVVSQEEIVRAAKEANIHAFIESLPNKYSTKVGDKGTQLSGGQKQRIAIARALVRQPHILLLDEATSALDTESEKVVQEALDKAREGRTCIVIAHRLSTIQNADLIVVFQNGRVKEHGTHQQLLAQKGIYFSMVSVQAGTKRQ
Text: as §1, with “Filters were washed twice with 5 ml of ice-cold Tris-HCI containing magnesium chloride (both 20 mM). Assays were performed in duplicate. Filters were dried and” for “Filters were dried and”

[4] = tested on: MCF-7/Adr cells; assay: Flow cytometric analysis of R123 accumulation and efflux; type: cell-based, human; details: for Increase over control levels in R123 accumulation: 20 min together with R123; for Effect on R123 accumulation or efflux: 640 nM; for Effect on R123 efflux (Table III summary): key: +: potent effect; (+): weak effect; -: no effect
Text: as §1, with “Filters were washed twice with 5 ml of ice-cold Tris-HCI containing magnesium chloride (both 20 mM). Assays were performed in duplicate. Filters were dried and” for “Filters were dried and”

[5] = tested on: MCF-7 cells; assay: Inhibition of growth of MCF-7 wild-type cells (4 days, Coulter count); type: cell-based, human; details: for IC50: 4 days incubation, mean of three experiments, read-out: IC50 MCF-7 (concentration which caused inhibition of cell growth by 50%)
Text: as §1

[6] = tested on: PKC; details: cited from earlier work; for PKC inhibition, potency (Table III summary) / IC50: ref Courage et al., 1995; for IC50: read-out: IC50 for enzyme inhibition, PKC derived from the cytosol of MCF-7 cells; for PKC inhibition, potency (Table III summary): key: +: potent effect; (+): weak effect; -: no effect; for PKC inhibition, specificity (Table III summary): key: +: potent effect; (+): weak effect; -: no effect
[7] = tested on: MCF-7/Adr cells; assay: Inhibition of growth of multidrug-resistant MCF-7/Adr cells, without or with reserpine; type: cell-based, human; details: for IC50: 4 days incubation, without reserpine; for Ratio (-reserpine / +reserpine): IC50 in MCF-7/Adr in the absence of reserpine over IC50 in its presence; for Ratio (MCF-7/Adr / MCF-7), resistance ratio: IC50 in MCF-7/Adr over IC50 in MCF-7; for MDR reversal by reserpine (Table III summary): key: +: potent effect; (+): weak effect; -: no effect
[8] = read-out: Ki, inhibition of binding of [3H]vinblastine to P-gp, MCF-7/Adr membranes, 90 min, 23 C, mean, s.e.m.
[9] = Homo sapiens, NCI/ADR-RES, 96 h

SMILES | [3H]Vinblastine accumulation [2] | Inhibition of [3H]vinblastine binding (Table III summary) [3] | Effect on R123 efflux (Table III summary) [4] | IC50 [5] [nM] | PKC inhibition, specificity (Table III summary) [6] | PKC inhibition, potency (Table III summary) [6] | IC50 [7] [nM] | Ratio (-reserpine / +reserpine) [7] | Ratio (MCF-7/Adr / MCF-7), resistance ratio [7] | Ki [3, 8] [nM] | also measured
CO[C@@H]1[C@H](N(C)C(=O)c2ccccc2)C[C@H]2O[C@]1(C)n1c3ccccc3c3c4c(c5c6ccccc6n2c5c31)C(=O)NC4 [CGP 41251, 4'-N-benzoyl staurosporine] | 3200 d.p.m. | + | + |  |  |  |  |  |  |  | Increase of sensitivity of cells towards doxorubicin (factor) ([1]; 80 nM): 2; Ki [3]: 32 nM; Increase over control levels in R123 retention (efflux) ([4]; 80 nM, 20 min after loading with and removal of the dye): 150%; Increase over control levels in R123 accumulation ([4]; 80 nM): 47%
CN(C)CCCn1cc(C2=C(c3c[nH]c4ccccc34)C(=O)NC2=O)c2ccccc21 [GF 109203X] | 1790 d.p.m. |  |  | 7300 | + | + | 8800 | 1.5 | 1.2 | 780 | Effect on R123 accumulation or efflux [4]: inactive; also recorded: did not alter
Cn1cc(C2=C(c3cn(CCCSC(=N)N)c4ccccc34)C(=O)NC2=O)c2ccccc21 [RO 31 8220] | no effect | (+) |  | 897 | + | + | 11300 | 6.4 | 12.6 | 210 | Effect on sensitivity of cells towards doxorubicin ([1]; 2 μM): no effect; Effect of reserpine on sensitivity of wild-type MCF-7 cells ([5]; result not shown): did not affect; IC50 [6]: 48 nM; MDR reversal by reserpine (Table III summary) [7]: +; Resistance in MCF-7/Adr cells (Table III summary) [7]: +; Effect on R123 accumulation or efflux [4]: inactive; also recorded: did not alter
CN[C@@H]1C[C@H]2O[C@@](C)([C@@H]1OC)n1c3ccccc3c3c4c(c5c6ccccc6n2c5c31)C(=O)N[C@H]4O [UCN-01, 7-hydroxystaurosporine] | 2110 d.p.m. | (+) | (+) | 17.5 | + | + | 123 | 3.5 | 7.0 | 293 | MDR reversal by reserpine (Table III summary) [7]: +; Resistance in MCF-7/Adr cells (Table III summary) [7]: +; Concentration with significant effect on R123 accumulation ([4]; tested 10-640 nM): 80 nM; Concentration with significant effect on dye efflux ([4]; tested 10-640 nM): 320 nM
COc1cccc2c1C(=O)c1c(O)c3c(c(O)c1C2=O)C[C@@](O)(C(=O)CO)C[C@@H]3O[C@H]1C[C@H](N)[C@H](O)[C@H](C)O1 [doxorubicin] |  |  |  |  |  |  |  | 16 |  |  | IC50 [7, 9]: 1600 nM
COC(=O)[C@H]1[C@H]2C[C@@H]3c4[nH]c5cc(OC)ccc5c4CCN3C[C@H]2C[C@@H](OC(=O)c2cc(OC)c(OC)c(OC)c2)[C@@H]1OC [reserpine] |  |  |  |  |  |  |  |  |  |  | Effect on proliferation ([7]; reserpine 5 μM): did not interfere with proliferation; Increase of sensitivity towards doxorubicin ([7]; reserpine 5 μM, preliminary experiments): 14.3 fold
CN[C@@H]1C[C@H]2O[C@@](C)([C@@H]1OC)n1c3ccccc3c3c4c(c5c6ccccc6n2c5c31)C(=O)NC4 [staurosporine] |  | (+) | + |  |  |  |  |  |  |  | IC50 [6]: 16 nM; IC50 [7, 9]: 6.5 nM; Ki [3]: 145 nM; Increase over control levels in R123 accumulation ([4]; 80 nM): 40%; Increase over control levels in R123 retention (efflux) ([4]; 20 min, 0.08 µM): 75%
